Earlier results, collected in publication PMC3015105 (Bioorganic & medicinal chemistry letters, 2010).

What was measured:
[1] = biological target: human dopamine transporter (hDAT) (Homo sapiens, UniProt Q01959); details: read-out: IC50 DAT inhibition; reported by Carroll
human dopamine transporter (hDAT), sequence (Q01959 whole entry): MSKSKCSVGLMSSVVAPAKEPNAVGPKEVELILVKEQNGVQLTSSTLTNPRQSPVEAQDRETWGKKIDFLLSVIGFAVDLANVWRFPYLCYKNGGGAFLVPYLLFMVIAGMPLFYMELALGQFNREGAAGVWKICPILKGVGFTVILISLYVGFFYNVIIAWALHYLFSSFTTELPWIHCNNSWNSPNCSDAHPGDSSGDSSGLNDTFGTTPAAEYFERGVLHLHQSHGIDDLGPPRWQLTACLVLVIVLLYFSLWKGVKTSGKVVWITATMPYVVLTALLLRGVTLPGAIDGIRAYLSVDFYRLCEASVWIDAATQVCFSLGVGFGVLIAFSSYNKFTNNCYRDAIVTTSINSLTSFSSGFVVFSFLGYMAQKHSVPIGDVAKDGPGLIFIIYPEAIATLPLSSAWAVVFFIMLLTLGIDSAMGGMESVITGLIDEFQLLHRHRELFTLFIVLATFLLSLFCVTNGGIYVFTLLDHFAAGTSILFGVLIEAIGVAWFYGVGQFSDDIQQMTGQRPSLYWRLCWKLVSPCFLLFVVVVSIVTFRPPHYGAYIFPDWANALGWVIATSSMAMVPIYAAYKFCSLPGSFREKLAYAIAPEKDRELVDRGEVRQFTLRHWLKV

| Compound | IC50 [1] | duration of action | immediate effect (onset) |
| --- | --- | --- | --- |
| Cc1cc(C2C3CCC(CC2c2ccc(Cl)cc2)S3)on1 (stereo not drawn) [2β-(3-methylisoxazol-5-yl)-3β-(4-chlorophenyl)-8-thiabicyclo[3.2.1]octane] | 0.59 nM |  |  |
| COC(=O)[C@H]1[C@@H](OC(=O)c2ccccc2)C[C@@H]2CC[C@H]1N2C [Cocaine] |  | 10 to 15 min | < 15 s |
